Molecular target: V1a (Homo sapiens, UniProt P37288)
Experiment: Human vasopression V1a receptor binding assay
Set-up: host or cells: CHO cells (hV1a cell line), whole adherent cells
Details: hV1a cell line (CHO); for IC50: 1 nM 3H-AVP, Table 17, read-out: V1a Binding Affinity (IC50 (nM)); for Ki: Table 18
Description: Human vasopression V1a receptor binding assay. A cell line expressing the human V1a receptor in CHO cells (henceforth referred to as the hV1a cell line) was obtained from Dr. Michael Brownstein, NIMH, Bethesda, Md., USA. The hV1a cDNA sequence is described by Thibonnier et al., Journal of Biological Chemistry, 269, 3304-3310 (1994), and the expression method was the same as described by Morel et al. (1992). The hV1a cell line was grown in alpha-MEM with 10% fetal bovine serum and 250 ug/ml G418 (Gibco, Grand Island, N.Y., USA). For competitive binding assay, hV1a cells were plated into 6-well culture plate at 1:10 dilution from a confluency flask, and maintained in culture for at least two days. Culture medium was then removed, cells were washed with 2 ml binding buffer (25 mM Hepes, 0.25% BSA, 1×DMEM, PH=7.0). To each well, 990 μl binding buffer containing 1 nM 3H-AVP was added, and followed by 10 μl series diluted Example compounds dissolved in DMSO. […] 100 nM cold AVP (Sigma) was used to assess non-specific binding. Cells were incubated for 45 minutes at 37° C., assay mixture was removed and each well was washed three times with PBS (pH=7.4). 1 ml 2% SDS was added per well and plates were let sit for 30 minutes. The whole content in a well was transferred to a scintillation vial. Each well was rinsed with 0.5 ml PBS which was then added to the corresponding vial. Scintillation fluid (Ecoscint, National Diagnostics, Atlanta, Ga.) was then added at 3 ml per vial. Samples were counted in a liquid scintillation counter (Beckman LS3801). IC50 values were calculated by Prism Curve fitting software.
All of the alkanedioic esters and amides exemplified in the foregoing examples dissolved in DMSO were tested in this assay. Binding curves were generated according to methods described by Thibonnier et al. (1994). [^3H]-AVP was added to the hV1a cell cultures followed by 10 fold dilutions of each test compound.

V1a, sequence (P37288 whole entry): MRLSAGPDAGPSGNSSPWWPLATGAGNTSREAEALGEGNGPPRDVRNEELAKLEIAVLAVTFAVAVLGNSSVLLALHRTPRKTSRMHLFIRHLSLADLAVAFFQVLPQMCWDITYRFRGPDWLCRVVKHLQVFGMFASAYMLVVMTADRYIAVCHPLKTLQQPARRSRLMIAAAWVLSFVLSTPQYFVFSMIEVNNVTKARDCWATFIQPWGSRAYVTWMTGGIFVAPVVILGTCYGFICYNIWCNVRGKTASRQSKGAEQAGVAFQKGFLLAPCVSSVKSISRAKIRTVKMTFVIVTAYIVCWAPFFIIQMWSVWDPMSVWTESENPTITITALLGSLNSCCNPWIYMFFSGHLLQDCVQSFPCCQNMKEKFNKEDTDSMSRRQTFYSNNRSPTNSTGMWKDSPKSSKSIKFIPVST

| IC50 | Ki | Structure (SMILES) |
| --- | --- | --- |
| 0.78 nM | 0.48 nM | O=C(NCc1cccs1)[C@H](CCC(=O)N1CCN(C2CCCCC2)CC1)N1C(=O)[C@@H](N2C(=O)OC[C@@H]2c2ccccc2)[C@H]1/C=C/c1ccccc1 [Example 213] |
| 1.83 nM | 1.12 nM | O=C(NC1CCc2ccccc21)[C@H](CCC(=O)N1CCN(C2CCCCC2)CC1)N1C(=O)[C@@H](N2C(=O)OC[C@@H]2c2ccccc2)[C@H]1/C=C/c1ccccc1 (stereo partly shown) [Example 216] |
| 3.17 nM | 1.94 nM | O=C(NC1(c2ccccc2)CCCC1)[C@H](CCC(=O)N1CCN(C2CCCCC2)CC1)N1C(=O)[C@@H](N2C(=O)OC[C@@H]2c2ccccc2)[C@H]1/C=C/c1ccccc1 [Example 217] |
| 7.7 nM | 4.7 nM | COc1cc(OC)cc(C(C)(C)NC(=O)[C@H](CCC(=O)N2CCN(C3CCCCC3)CC2)N2C(=O)[C@@H](N3C(=O)OC[C@@H]3c3ccccc3)[C@H]2/C=C/c2ccccc2)c1 [Example 218] |
| 0.63 nM | 0.39 nM | COc1ccc(OC)c(CNC(=O)[C@H](CCC(=O)N2CCN(C3CCCCC3)CC2)N2C(=O)[C@@H](N3C(=O)OC[C@@H]3c3ccccc3)[C@H]2/C=C/c2ccccc2)c1 [Example 219] |
| 5.3 nM | 3.26 nM | COc1ccccc1CNC(=O)[C@H](CCC(=O)N1CCN(C2CCCCC2)CC1)N1C(=O)[C@@H](N2C(=O)OC[C@@H]2c2ccccc2)[C@H]1/C=C/c1ccccc1 [Example 220] |
| < 10 nM |  | CCCCN1CCN(C(=O)CC[C@@H](C(=O)NCc2cccc(C(F)(F)F)c2)N2C(=O)[C@@H](N3C(=O)OC[C@@H]3c3ccccc3)[C@H]2/C=C/c2ccccc2)CC1 [Example 221AB] |
| < 10 nM |  | CCN1CCN(C(=O)CC[C@@H](C(=O)NCc2cccc(C(F)(F)F)c2)N2C(=O)[C@@H](N3C(=O)OC[C@@H]3c3ccccc3)[C@H]2/C=C/c2ccccc2)CC1 [Example 221AC] |
| ~50 nM |  | O=C(CC[C@@H](C(=O)N[C@@H]1CCCc2ccccc21)N1C(=O)[C@@H](N2C(=O)OC[C@@H]2c2ccccc2)[C@H]1/C=C/c1ccccc1)N[C@@H]1CCN(Cc2ccccc2)C1 [Example 221AD] |
| ~50 nM |  | CCN1CCC[C@H]1CNC(=O)CC[C@@H](C(=O)N[C@@H]1CCCc2ccccc21)N1C(=O)[C@@H](N2C(=O)OC[C@@H]2c2ccccc2)[C@H]1/C=C/c1ccccc1 [Example 221AI] |
| ~100 nM |  | O=C(CC[C@@H](C(=O)N[C@@H]1CCCc2ccccc21)N1C(=O)[C@@H](N2C(=O)OC[C@@H]2c2ccccc2)[C@H]1/C=C/c1ccccc1)Nc1cnc2ccccc2c1 [Example 221AL] |
|  | 2.7 nM | O=C(NC1(c2cccc(F)c2)CCCC1)[C@H](CCC(=O)N1CCN(C2CCCCC2)CC1)N1C(=O)[C@@H](N2C(=O)OC[C@@H]2c2ccccc2)[C@H]1/C=C/c1ccccc1 [Example 221AM] |
| ~100 nM |  | COc1ccc(C2(NC(=O)[C@H](CCC(=O)N3CCN(C4CCCCC4)CC3)N3C(=O)[C@@H](N4C(=O)OC[C@@H]4c4ccccc4)[C@H]3/C=C/c3ccccc3)CC2)cc1 [Example 221AO] |
|  | 3.8 nM | Cc1ccc(C2(NC(=O)[C@H](CCC(=O)N3CCN(C4CCCCC4)CC3)N3C(=O)[C@@H](N4C(=O)OC[C@@H]4c4ccccc4)[C@H]3/C=C/c3ccccc3)CC2)cc1 [Example 221AP] |
| ~50 nM |  | O=C(NC1(c2ccc(Cl)cc2)CCCC1)[C@H](CCC(=O)N1CCN(C2CCCCC2)CC1)N1C(=O)[C@@H](N2C(=O)OC[C@@H]2c2ccccc2)[C@H]1/C=C/c1ccccc1 [Example 221AQ] |
| ~20 nM |  | Cc1ccc(C2(NC(=O)[C@H](CCC(=O)N3CCN(C4CCCCC4)CC3)N3C(=O)[C@@H](N4C(=O)OC[C@@H]4c4ccccc4)[C@H]3/C=C/c3ccccc3)CCCC2)cc1 [Example 221AS] |
| 83 nM | 51 nM | CC(C)(C)OC(=O)N[C@@H]1CCN(C2CCN(C(=O)CC[C@@H](C(=O)NC3(c4ccccc4)CCCC3)N3C(=O)[C@@H](N4C(=O)OC[C@@H]4c4ccccc4)[C@H]3/C=C/c3ccccc3)CC2)C1 [Example 221AX] |
| ~30 nM |  | O=C(Nc1cccc2c1CCC2)[C@H](CCC(=O)N1CCN(C2CCCCC2)CC1)N1C(=O)[C@@H](N2C(=O)OC[C@@H]2c2ccccc2)[C@H]1/C=C/c1ccccc1 [Example 221AY] |

| IC50 | Ki | Structure (SMILES) |
| --- | --- | --- |
| 2.71 nM | 1.66 nM | Cc1cccc(CN(C)C(=O)[C@H](CCC(=O)N2CCN(C3CCCCC3)CC2)N2C(=O)[C@@H](N3C(=O)OC[C@@H]3c3ccccc3)[C@H]2/C=C/c2ccccc2)c1 [Example 221A] |
| 2.7 nM | 1.66 nM | CCN1CCN(C(=O)CC[C@@H](C(=O)N[C@@H]2CCCc3ccccc32)N2C(=O)[C@@H](N3C(=O)OC[C@@H]3c3ccccc3)[C@H]2/C=C/c2ccccc2)CC1 [Example 221BD] |
| 56 nM | 35 nM | O=C(N[C@@H]1CCCc2ccccc21)[C@H](CCC(=O)N1CCN(CCCO)CC1)N1C(=O)[C@@H](N2C(=O)OC[C@@H]2c2ccccc2)[C@H]1/C=C/c1ccccc1 [Example 221BI] |
| 0.59 nM | 0.36 nM | CN(Cc1cccc(Cl)c1Cl)C(=O)[C@H](CCC(=O)N1CCN(C2CCCCC2)CC1)N1C(=O)[C@@H](N2C(=O)OC[C@@H]2c2ccccc2)[C@H]1/C=C/c1ccccc1 [Example 221B] |
| 3 nM | 1.84 nM | CN(Cc1cccc(Cl)c1)C(=O)[C@H](CCC(=O)N1CCN(C2CCCCC2)CC1)N1C(=O)[C@@H](N2C(=O)OC[C@@H]2c2ccccc2)[C@H]1/C=C/c1ccccc1 [Example 221C] |
| 2.41 nM | 1.48 nM | CN(Cc1cccc(Br)c1)C(=O)[C@H](CCC(=O)N1CCN(C2CCCCC2)CC1)N1C(=O)[C@@H](N2C(=O)OC[C@@H]2c2ccccc2)[C@H]1/C=C/c1ccccc1 [Example 221D] |
| 20.2 nM | 12.4 nM | CN(Cc1cc(Cl)cc(Cl)c1)C(=O)[C@H](CCC(=O)N1CCN(C2CCCCC2)CC1)N1C(=O)[C@@H](N2C(=O)OC[C@@H]2c2ccccc2)[C@H]1/C=C/c1ccccc1 [Example 221E] |
| 1.5 nM | 0.93 nM | O=C(NC1(c2ccccc2)CCCCC1)[C@H](CCC(=O)N1CCN(C2CCCCC2)CC1)N1C(=O)[C@@H](N2C(=O)OC[C@@H]2c2ccccc2)[C@H]1/C=C/c1ccccc1 [Example 221G] |
| 4 nM | 2.5 nM | O=C(NC1(c2ccccc2F)CCCC1)[C@H](CCC(=O)N1CCN(C2CCCCC2)CC1)N1C(=O)[C@@H](N2C(=O)OC[C@@H]2c2ccccc2)[C@H]1/C=C/c1ccccc1 [Example 221H] |
| 12 nM | 7.4 nM | O=C(NC1(c2ccc(F)cc2)CCCC1)[C@H](CCC(=O)N1CCN(C2CCCCC2)CC1)N1C(=O)[C@@H](N2C(=O)OC[C@@H]2c2ccccc2)[C@H]1/C=C/c1ccccc1 [Example 221I] |
| ~5 nM |  | O=C(NC(c1ccccc1)c1ccccc1)[C@H](CCC(=O)N1CCN(C2CCCCC2)CC1)N1C(=O)[C@@H](N2C(=O)OC[C@@H]2c2ccccc2)[C@H]1/C=C/c1ccccc1 [Example 221K] |
| 8.4 nM | 5.1 nM | O=C(CC[C@@H](C(=O)N1CCc2ccccc2C1)N1C(=O)[C@@H](N2C(=O)OC[C@@H]2c2ccccc2)[C@H]1/C=C/c1ccccc1)N1CCN(C2CCCCC2)CC1 [Example 221O] |
| 1.7 nM | 1.1 nM | O=C(NC1Cc2ccccc2C1)[C@H](CCC(=O)N1CCN(C2CCCCC2)CC1)N1C(=O)[C@@H](N2C(=O)OC[C@@H]2c2ccccc2)[C@H]1/C=C/c1ccccc1 [Example 221P] |
| 18.1 nM | 11.1 nM | O=C(NC(CCO)c1ccccc1)[C@H](CCC(=O)N1CCN(C2CCCCC2)CC1)N1C(=O)[C@@H](N2C(=O)OC[C@@H]2c2ccccc2)[C@H]1/C=C/c1ccccc1 (stereo partly shown) [Example 221Q] |
| 5.13 nM | 3.14 nM | O=C(N[C@H]1CCc2ccccc21)[C@H](CCC(=O)N1CCN(C2CCCCC2)CC1)N1C(=O)[C@@H](N2C(=O)OC[C@@H]2c2ccccc2)[C@H]1/C=C/c1ccccc1 [Example 221R] |
| 5.03 nM | 3.08 nM | O=C(N[C@@H]1CCc2ccccc21)[C@H](CCC(=O)N1CCN(C2CCCCC2)CC1)N1C(=O)[C@@H](N2C(=O)OC[C@@H]2c2ccccc2)[C@H]1/C=C/c1ccccc1 [Example 221S] |
| 11.6 nM | 7.2 nM | O=C(CC[C@@H](C(=O)N[C@@H]1CCCc2ccccc21)N1C(=O)[C@@H](N2C(=O)OC[C@@H]2c2ccccc2)[C@H]1/C=C/c1ccccc1)NCCN1CCCCC1 [Example 221X] |
| 7.6 nM | 4.7 nM | O=C(N[C@@H]1CCCc2ccccc21)[C@H](CCC(=O)N1CCC[C@H]1CN1CCCC1)N1C(=O)[C@@H](N2C(=O)OC[C@@H]2c2ccccc2)[C@H]1/C=C/c1ccccc1 [Example 221Y] |

| Structure (SMILES) | IC50 | Ki |
| --- | --- | --- |
| O=C(CC[C@@H](C(=O)N[C@@H]1CCCc2ccccc21)N1C(=O)[C@@H](N2C(=O)OC[C@@H]2c2ccccc2)[C@H]1/C=C/c1ccccc1)NC1CN2CCC1CC2 (stereo partly shown) [Example 221AE] | ~50 nM |  |
